Experimental data: PubChem BioAssay AID743098 (Vanderbilt Specialized Chemistry Center, 2013)
Calls of active or inactive are those of the source. No rule for the calls is given here.

These molecules were tested against Muscarinic acetylcholine receptor M1 (Homo sapiens) (UniProt P11229) (assay: M1 receptor allosteric modulation check, selectivity assay for M5 NAM discovery project, cell-based, human M1 (AID 743098)). Details: CHO-K1 hM1 calcium flux, Fluo-4, ACh EC20; at 30 µM; hits give low values.
Chain of Muscarinic acetylcholine receptor M1 (Homo sapiens) (P11229 whole entry, looked up): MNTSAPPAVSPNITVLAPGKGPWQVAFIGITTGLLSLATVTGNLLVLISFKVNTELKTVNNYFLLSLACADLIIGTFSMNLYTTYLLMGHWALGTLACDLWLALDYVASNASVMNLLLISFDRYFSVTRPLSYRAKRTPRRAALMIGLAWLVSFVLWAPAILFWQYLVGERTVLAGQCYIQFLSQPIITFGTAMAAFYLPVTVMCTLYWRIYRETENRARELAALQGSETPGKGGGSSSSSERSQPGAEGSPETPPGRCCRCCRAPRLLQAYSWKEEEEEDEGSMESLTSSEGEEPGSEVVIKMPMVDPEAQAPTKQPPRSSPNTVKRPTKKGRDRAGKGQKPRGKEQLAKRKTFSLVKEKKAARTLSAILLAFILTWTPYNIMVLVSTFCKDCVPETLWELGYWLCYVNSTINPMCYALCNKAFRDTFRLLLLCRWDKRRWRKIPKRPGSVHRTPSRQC

SMILES | response, % of max ACh
O=C(c1ccc(F)c(F)c1)N1CCN2C(=O)c3ccccc3C12c1ccc(Cl)cc1 (stereo not given) | 80.5% (inactive)
O=C(c1ccc(F)cc1)N1CCN2C(=O)c3ccccc3C12c1ccccc1 (stereo not given) | 83.6% (inactive)
O=C(c1cc(F)cc(F)c1)N1CCN2C(=O)c3ccccc3C12c1ccc(Cl)cc1 (stereo not given) | 79.9% (inactive)

Results, then the molecule that gave them:

response, % of max ACh | SMILES
87.2% (inactive) | O=C(c1ccc(F)c(F)c1)N1CCN2C(=O)c3ccccc3C12c1ccccc1 (stereo not given)
66.4% (inactive) | O=C(c1ccc(F)c(F)c1)N1CCN2C(=O)c3ccccc3[C@@]12c1ccc(Cl)cc1
